Measured values reported in PMC10916382, “Repurposing screen identifies novel candidates for broad-spectrum coronavirus antivirals and druggable host targets” (Antimicrobial Agents and Chemotherapy, 2024).
Where a name gives a salt, the structure may show the parent alone. Read-outs that look alike come from different tables or passages of the source.

Tests used:
SARS-CoV-2 [1] = conditions: cited from earlier work
SARS-CoV-2 [2] = conditions: for SI (CC50/IC50): CC50 from LDH assay / IC50 from qRT-PCR
Huh-7.5/F-Luc cells = conditions: for % cell viability at max. dose [5 µM]: at max. dose 5 µM
SARS-CoV-2 [3] = assay type: cell-based; conditions: dose range 0.15 µM to 10 µM, viral genome copies in apical washes and cellular lysates
[4] = test system: primary human airway epithelial cells; conditions: dose range 0.15 µM to 10 µM, cellular lysates
HCoV-229E [5] = test: microbe, parasite or virus in culture; assay type: cell-based, Homo sapiens sapiens
Calu-3 cells = conditions: LDH release, non-infected Calu-3 cells, 48 hours of drug treatment
SARS-CoV-2 [6] = conditions: for total cell numbers / reduction of infected cell numbers: 5 µM, relative to DMSO; for total cell numbers: DAPI; for reduction of infected cell numbers: N protein immunofluorescence; for outcome against confirmation criteria of the SARS-CoV-2 counter-screen (<50% infected cell, >75% total cells): single dose of 5 µM
SARS-CoV-2 [7] = test: microbe, parasite or virus in culture; conditions: Severe acute respiratory syndrome coronavirus 2, Calu-3, 48 h
in vitro [8] = test: in vitro
HCoV-229E [9] = test system: HCoV-229E; parameters: method as in PMID 34446714; conditions: Huh-7.5 cells; cited from earlier work
in vitro [10] = conditions: human
HCoV-229E [11] = test: Twelve-step dose titration against HCoV-229E infection on Huh-7.5/F-Luc/Cas9 cells; assay type: cell-based, Homo sapiens sapiens; conditions: n = 3
Huh-7.5/F-Luc/Cas9 cells = conditions: twelve-step 1:3 dilutions, n = 3
in vitro [12] = conditions: human; remark: listed apart in the source
[13] = Huh-7.5 cells, dose series, maximum tested dose 5 µM
[14] = Calu-3 cells, immunofluorescence imaging
[15] = Human coronavirus 229E, Huh7.5, 48 h, read-out: IC50 against HCoV-229E
[16] = Human coronavirus 229E, Huh7.5, twelve-step 1:3 dilutions

Compound: C=C(CC(=O)OCCCCCCCC)C(=O)O [4-OI, 4-octyl-itaconate]
- anti-SARS-CoV-2 effects (SARS-CoV-2 [1]): anti-SARS-CoV-2 effects at high concentrations

Compound: C#CCOc1ccc2c(c1)c(-c1ccc(C(C)C)cc1)nc(=O)n2Cc1ccc(Br)cc1 [AXT-914, reference compound]
- IC50 (SARS-CoV-2 [2]): 5650 nM
- IC90 (SARS-CoV-2 [2]): 21800 nM
- SI (CC50/IC50) (SARS-CoV-2 [2]; Calu-3 cells): > 7.08
- CC50 (µM) (Huh-7.5/F-Luc cells; [13]): greater than maximum tested dose
- % cell viability at max. dose [5 µM] (Huh-7.5/F-Luc cells): 127.46%
- antiviral activity against SARS-CoV-2 in HAE cells (SARS-CoV-2 [3]): dose dependently inhibited SARS-CoV-2 infection
- cytotoxicity in HAE cells, GAPDH mRNA [4]: without reducing GAPDH mRNA levels
- IC50 (HCoV-229E [5]; HCoV 229E infection, dose series, max. dose 5 µM, read-out: IC50): 50 nM
- CC50 (Calu-3 cells): > 40000 nM
- Anti-SARS-CoV-2 screening on Calu-3 cells: viability [% of control] (SARS-CoV-2 [6]; Calu-3 cells): 76.99 % of control
- total cell numbers (SARS-CoV-2 [6]; Calu-3 cells): ≥ 75%
- reduction of infected cell numbers (SARS-CoV-2 [6]; Calu-3 cells): more than 50%
- Anti-SARS-CoV-2 screening on Calu-3 cells: intracellular SARS-CoV-2 infection measured via immunofluorescence imaging [% of control] (SARS-CoV-2 [6]; [14]): 20.74 % of control

Compound: CC1(C)CC[C@]2(C(=O)O)CC[C@]3(C)[C@H](C(=O)C=C4[C@@]5(C)C=C(C#N)C(=O)C(C)(C)[C@@H]5CC[C@]43C)[C@@H]2C1 [Bardoxolone, reference compound]
- SI (CC50/IC50) (SARS-CoV-2 [2]; Calu-3 cells): 3.90
- antiviral activity against SARS-CoV-2 in HAE cells (SARS-CoV-2 [3]): the reduction in viral genome copies could not be separated from an increase in cytotoxicity
- IC50 (HCoV-229E [5]; Human coronavirus 229E, Huh7.5): 40 nM
- IC50 (HCoV-229E [5]; [15]): 37 nM
- Anti-SARS-CoV-2 screening on Calu-3 cells: intracellular SARS-CoV-2 infection measured via immunofluorescence imaging [% of control] (SARS-CoV-2 [6]; [14]): 95.03 % of control
- outcome against confirmation criteria of the SARS-CoV-2 counter-screen (<50% infected cell, >75% total cells) (SARS-CoV-2 [6]; Calu-3 cells): did not meet the inclusion criteria
- IC50 (SARS-CoV-2 [7]): 1890 nM
- IC90 (SARS-CoV-2 [7]): 7030 nM
- viability at 48 h, 5 µM (in vitro [8]): 118%

Compound: Cc1ccccc1N=Nc1ccc(NC(=O)c2ccnn2C)c(C)c1 [CH223191]
- effect on SARS-CoV-2 infection (SARS-CoV-2 [1]; Calu-3 and Vero cells): decreased HCoV-229E and SARS-CoV-2 infection
- effect on HCoV-229E infection (HCoV-229E [9]): decreased HCoV-229E and SARS-CoV-2 infection

Compound: COC(=O)/C=C/C(=O)OC [DMF, dimethyl fumarate]
- anti-SARS-CoV-2 effects (SARS-CoV-2 [1]): anti-SARS-CoV-2 effects at high concentrations

Compound: CCc1cnn2c(NCc3ccc[n+]([O-])c3)cc(N3CCCC[C@H]3CCO)nc12 [Dinaciclib, reference compound]
- inhibition of SARS-CoV-2 infection (SARS-CoV-2 [1]; Vero E6 and A549/ACE2 cells): nanomolar efficacy
- virus load in the culture fluid (SARS-CoV-2 [2]; Calu-3 cells, screening dose 5 µM, 48 hours post-inoculation): reduced virus load
- CC50 (µM) (Huh-7.5/F-Luc cells): greater than maximum tested dose
- Anti-SARS-CoV-2 screening on Calu-3 cells: intracellular SARS-CoV-2 infection measured via immunofluorescence imaging [% of control] (SARS-CoV-2 [6]): 72.14 % of control
- outcome against confirmation criteria of the SARS-CoV-2 counter-screen (<50% infected cell, >75% total cells) (SARS-CoV-2 [6]; Calu-3 cells): did not meet our stringent confirmation criteria
- viability at 48 h, 5 µM (in vitro [8]): 29.7%

Compound: O=Cc1c2[nH]c3ccccc3c2cc2[nH]c3ccccc3c12 [FICZ, 6-formylindolo(3,2-b) carbazole]
- inhibition of SARS-CoV-2 infection (SARS-CoV-2 [1]; Vero cells): inhibited SARS-CoV-2 infection of Vero cells

Compound: CN1CC[C@H](c2c(O)cc(O)c3c(=O)cc(-c4ccccc4Cl)oc23)[C@H](O)C1 [Flavopiridol]
- SI (CC50/IC50) (SARS-CoV-2 [2]; Calu-3 cells): 2.21
- antiviral activity against SARS-CoV-2 in HAE cells (SARS-CoV-2 [3]): the reduction in viral genome copies could not be separated from an increase in cytotoxicity
- CC50 (in vitro [10]): 460 nM
- total cell numbers (SARS-CoV-2 [6]; Calu-3 cells): ≥ 75%
- reduction of infected cell numbers (SARS-CoV-2 [6]; Calu-3 cells): more than 50%
- outcome against confirmation criteria of the SARS-CoV-2 counter-screen (<50% infected cell, >75% total cells) (SARS-CoV-2 [6]; Calu-3 cells): qualified as a hit in both imaging- and qRT-PCR-based assays
- IC50 (SARS-CoV-2 [7]): 210 nM
- IC90 (SARS-CoV-2 [7]): 520 nM

Compound: COc1ccc2[nH]c([S+]([O-])Cc3ncc(C)c(OC)c3C)nc2c1 (stereo not shown) [OMP, omeprazole]
- inhibition of SARS-CoV-2 infection (SARS-CoV-2 [1]; Vero cells): inhibited SARS-CoV-2 infection of Vero cells

Compound: CC1(C)CC[C@]2(NC(=O)C(C)(F)F)CC[C@]3(C)[C@H](C(=O)C=C4[C@@]5(C)C=C(C#N)C(=O)C(C)(C)[C@@H]5CC[C@]43C)[C@@H]2C1 [Omaveloxolone]
- SI (CC50/IC50) (SARS-CoV-2 [2]; Calu-3 cells): > 8.66
- antiviral activity against SARS-CoV-2 in HAE cells (SARS-CoV-2 [3]): inhibited SARS-CoV-2 infection at 1.25 µM and 2.5 µM
- cytotoxicity in HAE cells, GAPDH mRNA [4]: maintaining high cell viability
- CC50 (in vitro [10]): > 1250 nM
- IC50 (HCoV-229E [5]; [15]): 78 nM
- outcome against confirmation criteria of the SARS-CoV-2 counter-screen (<50% infected cell, >75% total cells) (SARS-CoV-2 [6]; Calu-3 cells): did not meet the inclusion criteria
- IC50 (SARS-CoV-2 [7]): 140 nM
- IC90 (SARS-CoV-2 [7]): 2410 nM

Compound: CC/C(=C(/C#N)c1ccc(OCCN(CC)CC)cc1)c1ccc(Cl)cc1 [P-3622, Z-3-(4-chlorophenyl)-2-(4-(2-(diethylamino)ethoxy)phenyl)pent-2-enenitrile]
- SI (CC50/IC50) (SARS-CoV-2 [2]; Calu-3 cells): 2.09
- IC50 (HCoV-229E [11]; [16]): 359 nM
- CC50 (µM) (Huh-7.5/F-Luc cells; [13]): greater than maximum tested dose
- antiviral activity against SARS-CoV-2 in HAE cells (SARS-CoV-2 [3]): limited antiviral activity
- cytotoxicity in HAE cells, GAPDH mRNA [4]: well tolerated
- CC50 (in vitro [10]): 19500 nM
- IC50 (HCoV-229E [5]; Human coronavirus 229E, Huh7.5): 880 nM
- Anti-SARS-CoV-2 screening on Calu-3 cells: intracellular SARS-CoV-2 infection measured via immunofluorescence imaging [% of control] (SARS-CoV-2 [6]; [14]): 97.91 % of control
- IC50 (SARS-CoV-2 [7]): 9350 nM
- IC90 (SARS-CoV-2 [7]): 23400 nM
- viability (in vitro [8]; Anti-SARS-CoV-2 screening on Calu-3 cells: viability [% of control], Calu-3 cells): 97.7%

Compound: Cc1cc(-c2nc3cc(F)ccc3s2)ccc1NC(=O)[C@@H](N)CCCCN [Phortress, reference compound]
- SI (CC50/IC50) (SARS-CoV-2 [2]; Calu-3 cells): 1.49
- IC90 (SARS-CoV-2 [2]; Calu-3 cells, viral genome copies in supernatant 48 hours post-infection): 164000 nM
- IC50 (SARS-CoV-2 [2]; Calu-3 cells, viral genome copies in supernatant 48 hours post-infection, n = 3): 13300 nM
- CC50 (µM) (Huh-7.5/F-Luc cells; [13]): greater than maximum tested dose
- % cell viability at max. dose [5 µM] (Huh-7.5/F-Luc cells): 252.77%
- antiviral activity against SARS-CoV-2 in HAE cells (SARS-CoV-2 [3]): dose dependently inhibited SARS-CoV-2 infection
- cytotoxicity in HAE cells, GAPDH mRNA [4]: without reducing GAPDH mRNA levels
- IC50 (HCoV-229E [5]; Huh-7.5/F-Luc cells, 8-step dose series, 48 hours at 33°C, read-out: IC50 against HCoV-229E): 230 nM
- CC50 (Calu-3 cells): 19900 nM
- Anti-SARS-CoV-2 screening on Calu-3 cells: viability [% of control] (SARS-CoV-2 [6]; Calu-3 cells): 106.32 % of control
- total cell numbers (SARS-CoV-2 [6]; Calu-3 cells): ≥ 75%
- reduction of infected cell numbers (SARS-CoV-2 [6]; Calu-3 cells): more than 50%
- Anti-SARS-CoV-2 screening on Calu-3 cells: intracellular SARS-CoV-2 infection measured via immunofluorescence imaging [% of control] (SARS-CoV-2 [6]; [14]): 46.05 % of control

Compound: CCC(CC)COC(=O)[C@H](C)N[P@](=O)(OC[C@H]1O[C@@](C#N)(c2ccc3c(N)ncnn23)[C@H](O)[C@@H]1O)Oc1ccccc1 [Remdesivir]
- SI (CC50/IC50) (SARS-CoV-2 [2]; Calu-3 cells): > 6.76
- IC50 (HCoV-229E [11]; [16]): 0.83 nM
- CC50 (µM) (Huh-7.5/F-Luc cells; [13]): greater than maximum tested dose
- antiviral activity against SARS-CoV-2 in HAE cells (SARS-CoV-2 [3]): dose dependently inhibited SARS-CoV-2 infection
- cytotoxicity in HAE cells, GAPDH mRNA [4]: without reducing GAPDH mRNA levels
- IC50 (HCoV-229E [5]; Human coronavirus 229E, Huh7.5): 20 nM
- IC50 (HCoV-229E [5]; [15]): 15.7 nM
- Anti-SARS-CoV-2 screening on Calu-3 cells: intracellular SARS-CoV-2 infection measured via immunofluorescence imaging [% of control] (SARS-CoV-2 [6]; [14]): 1.09 % of control
- IC50 (SARS-CoV-2 [7]): 180 nM
- IC90 (SARS-CoV-2 [7]): 310 nM

Compound: F/C(COc1ccc2c(c1)[nH]c1ccccc12)=C1/CN2CCC1CC2 [YM-53601]
- CC50 (Huh-7.5/F-Luc/Cas9 cells): 28100 nM
- IC50 (HCoV-229E [11]; twelve-step 1:3 dilutions): 1610 nM

Compound: C=C(CC[C@]12O[C@H](C(=O)O)[C@@](O)(C(=O)O)[C@](C(=O)O)(O1)[C@H](OC(=O)/C=C/[C@@H](C)C[C@@H](C)CC)[C@H]2O)[C@@H](OC(C)=O)[C@H](C)Cc1ccccc1 [Zaragozic Acid A, Zaragozic acid A]
- IC50 (HCoV-229E [11]; [16]): 1930 nM
- CC50 (in vitro [12]): > 100000 nM
